Measured values as given in patent US20220135526A1, “QUATERNARY AMMONIUM SALT COMPOUND, PREPARATION METHOD THEREFOR AND USE THEREOF” (WEST CHINA HOSPITAL, SICHUAN UNIVERSITY, priority 2019, published 2022).
Where a name gives a salt, the structure may show the parent alone.

Experiments:
rat's sciatic nerve = assay: Local anesthetic effect after injection near the rat sciatic nerve (von Frey stimulation; Postural Extensor Thrust for motor function); format: in vivo; details: SD rats, 0.5 mL near sciatic nerve, compounds 20 mmol/mL; for Duration of motor block: Postural Extensor Thrust; for Duration of motor block / Duration of sensory block: levobupivacaine 0.75%, lidocaine 2%; for Local anesthesia onset time: levobupivacaine 0.75% (22 mmol/L), lidocaine 2% (74 mmol/L); for Duration of sensory block: von Frey
Method: Dosage: for lidocaine group, lidocaine was formulated with distilled water into a solution at the concentration of 2% (74 mmol/L); for levobupivacaine group, levobupivacaine was formulated with distilled water into a solution at the concentration of 0.75% (22 mmol/L); the compound of the present invention was formulated with distilled water into a solution at the concentration of […].
The injection volume for each rat was 0.5 mL, which was guided by a nerve locator and injected near the rat's sciatic nerve. Using von Frey stimulator, the rats were stimulated the soles of the feet in the injected side, to observe the effect of local anesthesia. Meanwhile, Postural Extensor Thrust (PET) was used to evaluate the motor function of the rat: the rat was lifted vertically and the hindlimb in the injected side pedaled on the platform of the electronic balance. […] When the limb was completely paralyzed, the reading was the limb's own weight, about 20 g. If the measured value was more than half of the difference between the baseline and the limb weight, the motor function was regarded as recovery, and if the value was […], the motor function was regarded as loss.

back skin of SD rat = assay: Local anesthetic effect by subcutaneous infiltration (back skin, Von Frey fiber 100 g); format: in vivo; details: SD rats, 0.5 mL subcutaneous in saline; compounds 6 mmol/L, controls 0.75% (22 mmol/L) and 2% (74 mmol/L)
Method: After the back of SD rat weighing 250-300 g (half female and half male) was shaved and disinfected, a circle with a diameter of about 1.5 cm was drawn on the side of the exposed back, and the circle is divided into 6 equal parts. […] Among the Von Frey fiber yarns, the one with a strength of 100 g was bound to the needle for local skin stimulation. One minute After the drug was injected, the above method was used to stimulate in 6 divisions. […] If back skin contraction was observed, the local anesthetic effect was considered as loss. […] Each compound was tested with 10 rats.

| Compound | Duration of motor block (rat's sciatic nerve) | Local anesthesia onset time (rat's sciatic nerve) | Duration of sensory block (rat's sciatic nerve) | Duration of local anesthesia (median) (back skin of SD rat) | Local anesthesia onset time (median) (back skin of SD rat) |
| --- | --- | --- | --- | --- | --- |
| CCCCN1CCCC[C@H]1C(=O)Nc1c(C)cccc1C [0.75% levobupivacaine hydrochloride, levobupivacaine hydrochloride, reference compound] | 2.5 h | 1 min | 2.5 h | 7 h | 1 min |
| CCCCC[N+](CCCCC)(CCCN1CCCCC1C(=O)Nc1c(C)cccc1C)CC(=O)Nc1c(C)cccc1C (stereo not shown) [Example 1 product] | 21 h | 3 min | 32 h | 25 h | 1 min |
| CCCCCCCCCC[N+](CCCCCCCCCC)(CCOCCN1CCCCC1C(=O)Nc1c(C)cccc1C)CC(=O)Nc1c(C)cccc1C (stereo not shown) [Example 2 product] | 33 h | 4 min | 44 h | 44 h | 2 min |
| CCCCCC[N+](CCCCCC)(CCOCCOCCN1CCCCC1C(=O)Nc1c(C)cc(O)cc1C)CC(=O)Nc1c(C)cc(OC)cc1C (stereo not shown) [Example 4 product] | 13 h | 7 min | 23 h | 35 h | 1 min |
| CCCCC[N+](CCCCC)(CCCN1CCCCC1C(=O)Nc1c(C)cccc1C)CC(=O)Nc1c(C)cccc1C.Cl.[Br-] (stereo not shown) [Example 10 product] | 19 h | 3 min | 25 h | 56 h | 1 min |
| CCCCC[N+](CCCCCO)(CCCCCCN1CCCCC1C(=O)Nc1c(C)cccc1C)CC(=O)Nc1c(C)cccc1C.[Br-] (stereo not shown) [Example 12 product] | 11 h | 5 min | 42 h | 66 h | 3 min |
| CCCCC[N+](CCO)(CCCCCCN1CCCCC1C(=O)Nc1c(C)cccc1C)CC(=O)Nc1c(C)cccc1C.[Br-] (stereo not shown) [Example 13 product] | 14 h | 4 min | 55 h | 53 h | 4 min |
| CCCCC[N+](CCCO)(CCCCCCN1CCCCC1C(=O)Nc1c(C)cccc1C)CC(=O)Nc1c(C)cccc1C.[Br-] (stereo not shown) [Example 14 product] | 13 h | 5 min | 41 h | 75 h | 2 min |
| CCCCC[N+](CO)(CCCCCCN1CCCCC1C(=O)Nc1c(C)cccc1C)CC(=O)Nc1c(C)cccc1C.[Br-] (stereo not shown) [Example 15 product] | 16 h | 5 min | 44 h | 73 h | 4 min |
| CCCCC[N+](CCCCO)(CCCCCCN1CCCCC1C(=O)Nc1c(C)cccc1C)CC(=O)Nc1c(C)cccc1C.[Br-] (stereo not shown) [Example 16 product] | 17 h | 5 min | 60 h | 54 h | 2 min |
| Cc1cccc(C)c1NC(=O)C[N+](CCO)(CCO)CCCCCCN1CCCCC1C(=O)Nc1c(C)cccc1C (stereo not shown) [Example 17 product] | 18 h | 5 min | 37 h | 56 h | 2 min |
| Cc1cccc(C)c1NC(=O)C[N+](CCCO)(CCCCO)CCCCCCN1CCCCC1C(=O)Nc1c(C)cccc1C.[Br-] (stereo not shown) [Example 18 product] | 16 h | 2 min | 38 h | 49 h | 1 min |
| Cc1cccc(C)c1NC(=O)C[N+](CO)(CCCCO)CCCCCCN1CCCCC1C(=O)Nc1c(C)cccc1C.[Br-] (stereo not shown) [Example 19 product] | 10 h | 5 min | 39 h | 62 h | 1 min |
| CCCCC[N+](CCCCCCN1CCCCC1C(=O)Nc1c(C)cccc1C)(CCOCC)CC(=O)Nc1c(C)cccc1C (stereo not shown) [Example 20 product] | 14 h | 5 min | 54 h | 47 h | 3 min |
| COCC[N+](CCCCCCN1CCCCC1C(=O)Nc1c(C)cccc1C)(CCOC)CC(=O)Nc1c(C)cccc1C.[Br-] (stereo not shown) [Example 21 product] | 13 h | 5 min | 47 h | 64 h | 1 min |
| CCOCCC[N+](CCCCCCN1CCCCC1C(=O)Nc1c(C)cccc1C)(CCCOCC)CC(=O)Nc1c(C)cccc1C.[Br-] (stereo not shown) [Example 22 product] | 15 h | 3 min | 47 h | 63 h | 2 min |
| CCCCC[N+](CCCCCCN1CCCCC1C(=O)Nc1c(C)cccc1C)(CCCOC)CC(=O)Nc1c(C)cccc1C.[Br-] (stereo not shown) [Example 23 product] | 14 h | 5 min | 54 h | 83 h | 2 min |
| CCCCCCCCCC[N+](CCCCCCCC)(CCCCCCCCCCCN1CCCCC1C(=O)Nc1c(C)cc(C)cc1C)CC(=O)Nc1c(C)cccc1C (stereo not shown) [Example 24 product] | 11 h | 4 min | 54 h | 89 h | 2 min |
| CCCCC[N+](CCCCCCCCN1CCCCCCC1C(=O)Nc1c(C)cccc1C)(CCOCC)CC(=O)Nc1c(C)cccc1C (stereo not shown) [Example 25 product] | 12 h | 5 min | 44 h | 82 h | 3 min |
| CCCCC[N+](CCCCO)(CCCCCCCN1CCCCCC1C(=O)Nc1c(C)cccc1C)CC(=O)Nc1c(C)cccc1C (stereo not shown) [Example 26 product] | 16 h | 5 min | 45 h | 92 h | 3 min |
| CCCOCCCC[N+](CCCCCC(=O)O)(CCCSCCCN1CCCCC1C(=O)Nc1c(C)cccc1C)CC(=O)Nc1c(C)cccc1C (stereo not shown) [Example 29 product] | 15 h | 5 min | 50 h | 73 h | 2 min |
| Cc1cccc(C)c1NC(=O)C[N+]1(CCCOCCCN2CCCCC2C(=O)Nc2c(C)cccc2C)CC(C)OC(C)C1 (stereo not shown) [Example 32 product] | 17 h | 2 min | 46 h | 56 h | 2 min |
| CCOCC[N+](CCCCO)(CCCCCCN1CCCCC1C(=O)Nc1c(C)cccc1C)CC(=O)Nc1c(C)cccc1C (stereo not shown) [Example 35 product] | 13 h | 2 min | 54 h | 92 h | 2 min |
| COCC[N+](CCCCO)(CCCCCCN1CCCCC1C(=O)Nc1c(C)cccc1C)CC(=O)Nc1c(C)cccc1C (stereo not shown) [Example 36 product] | 21 h | 5 min | 52 h | 81 h | 1 min |
| CCCCCC[N+](CCCCCCN1CCCCC1C(=O)Nc1c(C)cccc1C)(CCOCCC)CC(=O)Nc1c(C)cccc1C (stereo not shown) [Example 37 product] | 17 h | 1 min | 45 h | 64 h | 1 min |
| CCCCCCCC[N+](CCCCCC(=O)O)(CCCOCCCN1CCCCC1C(=O)Nc1c(C)cccc1C)CC(=O)Nc1c(C)cccc1C (stereo not shown) [Example 39 product] | 19 h | 3 min | 61 h | 89 h | 2 min |
